{
  "source": "patent US20250090614A1",
  "about": "“COMPOSITIONS AND METHODS FOR IMPROVING LUNG FUNCTION” (priority 2023, published 2025)",
  "type_in_all_cases": "in vivo, mouse",
  "conditions_in_all_cases": "aged C57BL/6 mice, 25 mg/kg p.o. each substance, 90 days",
  "key": {"[1]": {"test_system": "Laminin", "test": "Laminin ELISA in lung tissue supernatant of aged mice", "protocol": "The experiments were performed in old C57b1/6 mice (28-30 weeks). Table 1 discloses the groups of mice used for the experimentation. C57BL/6 mice were bred and naturally aged in a pathogen-free colony. Mice were group-housed six per cage for the treatment regimen and maintained on a 12-hr light-dark schedule with ad libitum access to food and water. All experiments were designed according to the principles of animal use for gerontological research (Miller, R. A., & Nadon, N. L. (2000). Principles of animal use for gerontological research. Journals of Gerontology. Series A, Biological Sciences and Medical Sciences, 55, B117-B123) [table] The above test substances were administered to the mice for a period of 90 days. Rapamycin was used as a positive control. After 90 days of administration experiments were performed to assess the respiratory muscle function, anatomical changes, cellular senescence and immunological changes. Hyperinflation of the lungs may occur with ageing along with destruction of lung parenchyma or loss of supporting structures within the lung parenchyma (Gillooly M, Lamb D. Airspace size in lungs of lifelong non-smokers: effect of age and sex. Thorax. 1993; 48:39-43). […] Laminin was measured using commercially available ELISA Kit (AbCam ELISA Kit) according to the user's manual provided. […]"}, "[2]": {"test_system": "mTOR", "test": "mTOR ELISA in lung tissue homogenate of aged mice", "protocol": "The experiments were performed in old C57b1/6 mice (28-30 weeks). Table 1 discloses the groups of mice used for the experimentation. C57BL/6 mice were bred and naturally aged in a pathogen-free colony. Mice were group-housed six per cage for the treatment regimen and maintained on a 12-hr light-dark schedule with ad libitum access to food and water. All experiments were designed according to the principles of animal use for gerontological research (Miller, R. A., & Nadon, N. L. (2000). Principles of animal use for gerontological research. Journals of Gerontology. Series A, Biological Sciences and Medical Sciences, 55, B117-B123) [table] The above test substances were administered to the mice for a period of 90 days. Rapamycin was used as a positive control. After 90 days of administration experiments were performed to assess the respiratory muscle function, anatomical changes, cellular senescence and immunological changes. Activation of AMPK delays senescence. Abnormal autophagy and aging promote each other, and AMPK is an important regulator of this process. AMPK is involved in the transduction of several aging-related signaling pathways. AMPK intervenes in the development of many age-related diseases. […] These events contribute to the pathogenesis of age-related disorders."}, "[3]": {"test_system": "Immunoglobulin A (IgA)", "test": "IgA ELISA in bronchoalveolar lavage fluid of aged mice", "protocol": "The experiments were performed in old C57b1/6 mice (28-30 weeks). Table 1 discloses the groups of mice used for the experimentation. C57BL/6 mice were bred and naturally aged in a pathogen-free colony. Mice were group-housed six per cage for the treatment regimen and maintained on a 12-hr light-dark schedule with ad libitum access to food and water. All experiments were designed according to the principles of animal use for gerontological research (Miller, R. A., & Nadon, N. L. (2000). Principles of animal use for gerontological research. Journals of Gerontology. Series A, Biological Sciences and Medical Sciences, 55, B117-B123) [table] The above test substances were administered to the mice for a period of 90 days. Rapamycin was used as a positive control. After 90 days of administration experiments were performed to assess the respiratory muscle function, anatomical changes, cellular senescence and immunological changes. Bronchoalveolar lavage (BAL) fluids in healthy older subjects have consistently shown an increased proportion of neutrophils and lower percentage of macrophages compared with younger adults. There is age-associated decline in immunoglobins IgA and IgM. […] Immunoglobulin A (IgA) is the most abundant Ig in mucosac where it plays key roles in host defense against pathogens and in mucosal immunoregulation. […]"}},
  "data": [
    {"smiles": "O=C(/C=C/c1ccc(O)c(O)c1)O[C@H](Cc1ccc(O)c(O)c1)C(=O)O", "note": "[Rosmarinic acid]", "values": [
      {"measurement": "expression of laminin", "setting": "[1]", "result": "increased"},
      {"measurement": "expression of mTOR", "setting": "[2]", "result": "decreased"},
      {"measurement": "expression of IgA", "setting": "[3]", "result": "increased"}
    ]}
  ]
}
